The structures appear in SMILES notation.

Assay [1] relates to intact yeast cells. Nature of the assay: SNO-RAC/iTRAQ identification of SNO-proteins in treated intact yeast. The conditions noted are these: intact cells treated with 100 μM for 2 hr. Type of assay: cell-based, yeast (S. cerevisiae). The protocol:
Protein S-nitrosylation was assessed by the SNO-RAC assay, and differences in the profile of protein S-nitrosylation in WT versus adh6Δ yeast (under basal growth conditions and upon treatment of cells with EtCysNO) were quantified by iTRAQ labeling.
For analysis in yeast, cells were grown to absorbance 600 nm=1.0 and lysed by bead beating in lysis buffer (20 mM bis-tris propane, pH 7.0, 50 mM NaCl, 100 mM EDTA, 100 μM DTPA, 1 mM PMSF and protease inhibitor cocktail (Roche)). The lysate was centrifuged at 20,000 g for 10 min and the supernatant was adjusted to 1 mg/ml protein and retained for analysis. For analysis of SNO-proteins by mercury-coupled-photolysis-chemiluminescence, samples were processed as previously described. […] Eluates were analyzed by SDS-PAGE followed by Western blotting for erg10 (see below) or, for mass spectrometric analysis, individual lanes were excised from the gel and subjected to trypsin digest prior to processing for LC/MS-MS (see below). […]
Prior to analysis by LC-MS/MS, samples were passed through a C18 spin column (Thermo Pierce, Rockford, Ill.) and reconstituted in 0.1% formic acid. […] For peptide identification and quantification using iTRAQ reporter ions, MS analysis was performed using a hybrid linear ion trap Orbitrap Velos mass spectrometer (LTQ-Orbitrap Velos, Thermo, Waltham, Mass.). […]

The subject of assay [2] is WT and adh6Δ yeast. Nature of the assay: Metabolomic analysis of mevalonate, CoA and acetyl-CoA in treated yeast. The conditions noted are these: 2 hr. The class given is cell-based, yeast (S. cerevisiae). As to the method:
In extracts of WT and adh6Δ yeast (untreated and following treatment with EtCysNO), mevalonate, CoA and acetyl-CoA were separated and quantified by GC-MS (mevalonate) or LC-MS/MS (CoA, acetyl-CoA).
Yeast cells grown to mid-log phase (absorbance 600 nm=0.4-0.6) were left untreated or treated with EtCysNO (100 μM) for 2 hrs. Cells were harvested and washed with ice-cold H2O containing 0.1 mM EDTA or DTPA and stored at −80° C. until further analysis. To the samples, 3 ml of MeOH: H2O (8:2) was added followed by addition of 100 μl of D4 (1 mM) citrate as an internal standard. Samples were homogenized for 1 minute and 1 ml of the subsequent homogenate was taken and centrifuged at 800 g for 20 minutes. Supernatant was dried by nitrogen gas. 60 μl of N,O-bistrifluoroacetaniide was added to the dried residue and incubated at 70° C. for 30 minutes. Analyses were carried out on an Agilent 5973 mass spectrometer, linked to a 6890 gas chromatograph system equipped with an autosampler. An Agilent VF-5MS capillary column (60 m×0.32 mm×0.25 μm) was used for chromatographic separation. The carrier gas was helium (1 ml/min) with a pulse pressure of 20.1 p.s.i. The injection was in splitless mode. The temperature for both inlet and transfer line was set at 300° C. The ion source and quadrupole temperature were set at 230 and 150° C. The GC temperature program was as follows: start at 80° C., hold for 1 min, and increase by 10° C./min to 300° C., and it remained at 300° C. for 9 min. Mevalonate and internal standard signals were monitored at its nominal m/z with SIM mode. The m/z monitored for mevalonate and internal standard: 349 and 469, respectively. All the masses were measured in Electron Impact Ion Source. The retention times of mevalonate and internal standard are 15.2 and 18.1 minutes, respectively.
Yeast cells grown to mid-log phase (absorbance 600 nm=0.4-0.6) were left untreated or treated with EtCysNO (500 μM) for 2 hrs. […]

For `CCOC(=O)[C@@H](N)CSN=O` [EtCysNO, S-nitroso-cysteine ethyl ester], the “Number of SNO-proteins identified” value in assay [1] is 103. Besides, in assay [2] (adh6Δ yeast, 100 μM), the “Change of mevalonate levels” value is “significant decrease”. Moreover, the “Change of free CoA levels” value in assay [2] (yeast, 500 μM) is given as “large decreases”. The “Change of acetyl-CoA levels” value in assay [2] (yeast, 500 μM, increase larger in adh6Δ versus WT cells) is recorded as “increased”.
